Reference: patent US8227513B2, “Food composition for binding acetaldehyde in mouth and in digestive track, and method for the preparation of the composition” (Biohit Oyj, priority 2005, dated 2012)

Experiment: capability of cysteine to bind acetaldehyde from beers and yoghurts (gas chromatograph)
Conditions: for acetaldehyde concentration after the treatment: incubated 5 min at room temperature
Description: In the test, the capability of cysteine to bind acetaldehyde from light alcohol drinks and milk products, such as yoghurt, was examined. The amounts of acetaldehyde in four Finnish yoghurts and three beers were measured by means of a standardized method (Homann et al. 1997. High acetaldehyde levels in saliva after ethanol consumption: Methodological aspects and pathogenic implications. Carcinogenesis 18:1739-1743). The average acetaldehyde concentration (±SEM) in the beers was 146±30 μM. L-cysteine was added to the beers so that the final cysteine concentration of the product was 0 (the control), 0.1, 3 and 10 mM (i.e., 0 mg/l, 12.1 mg/l, 363 mg/l and 1210 mg/l); thereafter, the beers were incubated for 5 min at room temperature. Thereafter, the acetaldehyde contents were measured by means of a gas chromatograph. The acetaldehyde concentrations after the treatment were 146±30 μM, 133±32 μM, 26±9 μM and 10±3 μM, correspondingly. In the yoghurt, the acetaldehyde concentrations were 419±53 μM, on an average. L-cysteine was added so that the cysteine concentrations in the final product were 0 (the control), 0.1, 3 and 10 mM (i.e., 0 mg/l, 12.1 mg/l, 363 mg/l, and 1210 mg/l); thereafter, the yoghurts were incubated for 5 min at room temperature. The acetaldehyde concentrations after the treatment were 419±53 μM, 240±42 μM, 55±15 μM, and 15±2 μM.

N[C@@H](CS)C(=O)O [L-cysteine]
acetaldehyde concentration after the treatment (beers (control 146±30 μM), final cysteine concentration 0.1 mM (12.1 mg/l), mean ±SEM): 133 ± 32 µM
acetaldehyde concentration after the treatment (beers (control 146±30 μM), final cysteine concentration 3 mM (363 mg/l), mean ±SEM): 26 ± 9 µM
acetaldehyde concentration after the treatment (beers (control 146±30 μM), final cysteine concentration 10 mM (1210 mg/l), mean ±SEM): 10 ± 3 µM
acetaldehyde in the products eliminated (the products (beers and yoghurts), 3 mM of cysteine (363 mg/l)): over 80%
acetaldehyde concentration after the treatment (yoghurts (control 419±53 μM), cysteine concentration 0.1 mM (12.1 mg/l)): 240 ± 42 µM
acetaldehyde concentration after the treatment (yoghurts (control 419±53 μM), cysteine concentration 3 mM (363 mg/l)): 55 ± 15 µM
acetaldehyde concentration after the treatment (yoghurts (control 419±53 μM), cysteine concentration 10 mM (1210 mg/l)): 15 ± 2 µM
